Experimental findings from patent publication US20110263693A1, “CELASTROL, GEDUNIN, AND DERIVATIVES THEREOF AS HSP90 INHIBITORS” (DANA-FARBER CANCER INSTITUTE, INC., priority 2006, published 2011) are described below.

In one experiment the test system is gedunin signature. Description: Connectivity Map query with the gedunin signature. Format: cell-based, human. Details: key to gedunin score (connectivity score): connectivity score, based on Kolmogorov-Smirnov statistic. Particulars: for gedunin score (connectivity score): enrichment of the gedunin signature (20 μM gedunin at 6 hours, LNCaP) in the compound's Connectivity Map profiles, 6 hr treatment. The text has this: (§1) Indeed, a major challenge in cell-based chemical biology and chemical genomics is the identification of compounds' targets (Gardner et al., 2003). We hypothesized that gene expression signatures could be used to identify compound action based on the similarity of such compound-induced signatures to signatures of existing drugs of known mechanism. We therefore employed a collection of gene expression profiles of drug-treated cell lines that was developed in our lab, termed the Connectivity Map (Lamb et al., 2006). This database comprises 453 genome-wide Affymetrix expression profiles derived from the treatment of human cell lines with 164 small molecules, primarily FDA-approved drugs. A 6 hr treatment time was chosen in an attempt to capture the primary, and potentially mechanistic, effects of the compounds rather than the downstream phenotypic consequences.
(§2) In order to use the Connectivity Map to gain insight into celastrol and gedunin function, we first defined a gene expression signature of celastrol and gedunin activity. The expression signatures of celastrol and gedunin were derived by expression profiling of RNA from LNCaP cells treated with celastrol (1.25 μM), gedunin (20 μM), and vehicle (DMSO) for 6 hr; signatures were defined using comparative marker selection to identify transcripts that distinguished between the compound- and vehicle-treated profiles by the signal-to-noise (SNR) metric. The enrichment of these signatures in the gene expression profiles of the Connectivity Map database was then assessed using a gene enrichment metric, the connectivity score, based on the Kolmogorov-Smirnov statistic (Lamb et al., 2003).
(§3) The celastrol and gedunin signatures were developed from RMA-processed microarray data from LNCaP cells treated with 1.25 μM celastrol or 20 μM gedunin for 6 hours. Comparative marker selection was used to identify markers that distinguished celastrol- and/or gedunin-treated samples from vehicle-treated samples by the median SNR (Golub et al., 1999). The top 50 markers that increased and decreased relative to vehicle-treated controls were used as the signatures.
(§4) The current version of the Connectivity Map data set (build01) contains genome-wide expression data for 453 treatment and vehicle control pairs, representing 164 distinct small molecules. Cell treatments and Affymetrix profiling were predominantly carried out in MCF7 cells with 6 hr treatments as detailed (Table 4) (Lamb et al., 2006). Enrichment of the induced and repressed genes of a signature within each Connectivity Map treatment profile was estimated with a metric based on the Kolmogorov-Smirnov statistic as described (Lamb et al., 2003, Lamb et al., 2006). Connectivity Map data are available at www.broad.mit.edu/cmap/ and GEO (accession number GSE5258).
(§5) For the celastrol and gedunin signatures, RMA-processed data was filtered and thresholded (min fold change=2, min absolute change=50, floor=10, ceiling=16000). Comparative marker selection (GenePattern) was used to identify markers that distinguished celastrol- and/or gedunin-treated samples from vehicle-treated samples by the median SNR. The top fifty markers that increased and decreased relative to vehicle treated controls were used as the celastrol, gedunin, or joint celastrol/gedunin signatures.
(§6) The current version of The Connectivity Map dataset (build01) contains genome-wide expression data for 453 treatment and vehicle control pairs, representing 164 distinct small molecules. Cell treatments were predominantly carried out in the MCF7 cell line for 6 h as detailed in Table 4. Affymetrix profiling was then carried out as described (Lamb et al., 2006).

The subject of the next experiment is celastrol signature. Description: Connectivity Map query with the celastrol signature. It is filed as cell-based, human. Set-up: key to celastrol score (connectivity score): connectivity score, based on Kolmogorov-Smirnov statistic. Particulars: for celastrol score (connectivity score): enrichment of the celastrol signature (1.25 μM celastrol at 6 h, LNCaP) in the compound's Connectivity Map profiles, 6 hr treatment.
Source text: as §1, §2, §3, §4, §5, §6

Turning to `CC1=C(CC(=O)O)c2cc(F)ccc2/C1=C\c1ccc(S(C)(=O)=O)cc1` [exisulind], the “gedunin score (connectivity score)” value in the experiment with gedunin signature was −0.277. The “celastrol score (connectivity score)” value in the experiment on celastrol signature is recorded as −0.038.

Take `O=S(=O)(c1cccc2cnccc12)N1CCCNCC1` [fasudil]: the “gedunin score (connectivity score)” value with gedunin signature was determined as 0. Further, in the experiment with celastrol signature, the “celastrol score (connectivity score)” value is 0.

Turning to `CCOC(=O)C1=C(C)NC(C)=C(C(=O)OC)C1c1cccc(Cl)c1Cl` (stereo not drawn) [felodipine], the “gedunin score (connectivity score)” value in the experiment with gedunin signature worked out at 0.171. In the experiment with celastrol signature, the “celastrol score (connectivity score)” value is given as 0.171.

On to `O=c1c(O)c(-c2ccc(O)c(O)c2)oc2cc(O)ccc12` [fisetin], for which the “gedunin score (connectivity score)” value in the experiment with gedunin signature is on record as 0. In the experiment on celastrol signature, the “celastrol score (connectivity score)” value is 0.

With `C[C@]12CCC(=O)C=C1CC[C@H]1[C@@H]3CC[C@](O)(C(=O)CO)[C@@]3(C)C[C@H](O)[C@@]12F` [fludrocortisone], the “gedunin score (connectivity score)” value in the experiment on gedunin signature stood at 0. Besides, the “celastrol score (connectivity score)” value with celastrol signature came to 0.

As for `O=C(O)c1ccccc1Nc1cccc(C(F)(F)F)c1` [flufenamic acid], the “gedunin score (connectivity score)” value in the experiment with gedunin signature came to 0. For the same compound, in the experiment on celastrol signature, the “celastrol score (connectivity score)” value was determined as 0.

Consider `OCCN1CCN(CCCN2c3ccccc3Sc3ccc(C(F)(F)F)cc32)CC1` [fluphenazine], for which the “gedunin score (connectivity score)” value with gedunin signature is 0.34. Also, in the experiment on celastrol signature, the “celastrol score (connectivity score)” value was 0.481.

`C[C@]12CC[C@@H]3c4ccc(O)cc4C[C@@H](CCCCCCCCC[S+]([O-])CCCC(F)(F)C(F)(F)F)[C@H]3[C@@H]1CC[C@@H]2O` (stereo partly drawn) [fulvestrant]: the “gedunin score (connectivity score)” value with gedunin signature came out at 0.19. In addition, the “celastrol score (connectivity score)” value in the experiment with celastrol signature is on record as 0.069.

With `COc1cc2ncnc(Nc3ccc(F)c(Cl)c3)c2cc1OCCCN1CCOCC1` [gefitinib], the “gedunin score (connectivity score)” value with gedunin signature was 0. Also, the “celastrol score (connectivity score)” value with celastrol signature is recorded as −0.713.

In the case of `COC1=C2C[C@@H](C)C[C@H](OC)[C@H](O)[C@@H](C)/C=C(\C)[C@H](OC(N)=O)[C@@H](OC)/C=C\C=C(/C)C(=O)NC(=CC1=O)C2=O` [geldanamycin, reference compound], in the experiment with gedunin signature, the “gedunin score (connectivity score)” value was 0.74. For the same compound, the “celastrol score (connectivity score)” value in the experiment with celastrol signature is 0.676.

As to `O=c1c(-c2ccc(O)cc2)coc2cc(O)cc(O)c12` [genistein], the “gedunin score (connectivity score)” value in the experiment with gedunin signature is given as 0.097. The “celastrol score (connectivity score)” value in the experiment on celastrol signature is on record as 0.153.

With `CC#CCC(C)[C@H](O)/C=C/[C@@H]1[C@H]2C/C(=C/CCCC(=O)O)C[C@H]2C[C@H]1O` (stereo partly drawn) [iloprost], the “gedunin score (connectivity score)” value with gedunin signature was 0.101. Moreover, the “celastrol score (connectivity score)” value in the experiment on celastrol signature came to 0.098.

On to `COc1ccc2c(c1)c(CC(=O)O)c(C)n2C(=O)c1ccc(Cl)cc1` [indometacin], for which, in the experiment with gedunin signature, the “gedunin score (connectivity score)” value is 0.087. Also, the “celastrol score (connectivity score)” value with celastrol signature is given as 0.228.

With `C[C@H](CCC(=O)O)C[C@H](C)C[C@H](C)C(=O)/C=C(\O)[C@H](C)C[C@H](C)C/C=C/[C@@H](C)[C@@H](O)[C@@H](C)[C@@H](O)C[C@@H]1CC[C@@](C)([C@H]2CC[C@@](C)([C@@H](C)O)O2)O1` [ionomycin], in the experiment on gedunin signature, the “gedunin score (connectivity score)” value worked out at 0.129. Further, the “celastrol score (connectivity score)” value with celastrol signature worked out at 0.556.

Turning to `S=c1nc[nH]c2nc[nH]c12` [mercaptopurine], the “gedunin score (connectivity score)” value in the experiment on gedunin signature turned out to be 0.21. For the same compound, in the experiment with celastrol signature, the “celastrol score (connectivity score)” value is −0.121.

As for `Nc1ccc(O)c(C(=O)O)c1` [mesalazine], in the experiment on gedunin signature, the “gedunin score (connectivity score)” value stood at 0. The “celastrol score (connectivity score)” value in the experiment on celastrol signature worked out at 0.

For `CN(C)C(=N)N=C(N)N` [metformin], the “gedunin score (connectivity score)” value in the experiment with gedunin signature is recorded as −0.108. In addition, the “celastrol score (connectivity score)” value in the experiment on celastrol signature is given as −0.029.

Take `CN(C)c1ccc(O)c2c1C[C@H]1C[C@H]3[C@H](N(C)C)C(O)=C(C(N)=O)C(=O)[C@@]3(O)C(O)=C1C2=O` [minocycline]: in the experiment on gedunin signature, the “gedunin score (connectivity score)” value came out at 0. Moreover, in the experiment with celastrol signature, the “celastrol score (connectivity score)” value worked out at 0.

Consider `CCOC(=O)C1=C(C)NC(=S)NC1c1cccc(O)c1` (stereo not drawn) [monastrol], for which, in the experiment on gedunin signature, the “gedunin score (connectivity score)” value came out at 0.069. Also, in the experiment on celastrol signature, the “celastrol score (connectivity score)” value was determined as 0.226.

As for `CC[C@@]1([C@@H]2O[C@@H]([C@H]3O[C@@](O)(CO)[C@H](C)C[C@@H]3C)C[C@@H]2C)CC[C@H]([C@]2(C)CC[C@]3(C[C@H](O)[C@@H](C)[C@@H]([C@@H](C)[C@@H](OC)[C@H](C)C(=O)O)O3)O2)O1` [monensin], the “gedunin score (connectivity score)” value in the experiment on gedunin signature is recorded as 0. The “celastrol score (connectivity score)” value in the experiment with celastrol signature amounted to 0.454.

Take `CCOC(=O)C1=C(C)NC(C)=C(C(=O)OC)C1c1cccc([N+](=O)[O-])c1` (stereo not drawn) [nitrendipine]: in the experiment with gedunin signature, the “gedunin score (connectivity score)” value is reported as 0. Further, the “celastrol score (connectivity score)” value with celastrol signature is given as 0.

As to `COC(=O)Nc1nc2ccc(C(=O)c3cccs3)cc2[nH]1` [nocodazole], the “gedunin score (connectivity score)” value with gedunin signature is listed as 0.436. The “celastrol score (connectivity score)” value in the experiment on celastrol signature amounted to 0.517.

Turning to `CC(Cc1ccc(O)c(O)c1)C(C)Cc1ccc(O)c(O)c1` (stereo not drawn) [nordihydroguaiaretic acid], the “gedunin score (connectivity score)” value in the experiment with gedunin signature came out at 0.286. The “celastrol score (connectivity score)” value with celastrol signature was found to be 0.264.

Consider `CO[C@@H]1[C@@H](OC(N)=O)[C@@H](O)[C@H](Oc2ccc3c(O)c(NC(=O)c4ccc(O)c(CC=C(C)C)c4)c(=O)oc3c2C)OC1(C)C` [novobiocin], for which, in the experiment on gedunin signature, the “gedunin score (connectivity score)” value was 0.261. For the same compound, in the experiment on celastrol signature, the “celastrol score (connectivity score)” value was found to be 0.167.

For the compound `CC[C@H]1/C=C/C=C/C[C@@H](C)[C@H](O)[C@@](C)(O)C(=O)[C@@H](C)[C@H](O)[C@@H](C)C(=O)[C@@H](C)[C@H](O)[C@@H](C)/C=C/C(=O)O[C@@H]2[C@H](C)[C@H](CC1)O[C@]1(CC[C@H](C)[C@H](C[C@@H](C)O)O1)[C@H]2C` [oligomycin], the “gedunin score (connectivity score)” value in the experiment with gedunin signature is reported as 0.305. In the experiment with celastrol signature, the “celastrol score (connectivity score)” value is on record as −0.491.

Turning to `NC(=O)C(=O)O` [oxamic acid], the “gedunin score (connectivity score)” value in the experiment with gedunin signature stood at 0. In addition, the “celastrol score (connectivity score)” value in the experiment with celastrol signature was −0.654.

With `O=C(O)CCc1nc(-c2ccccc2)c(-c2ccccc2)o1` [oxaprozin], the “gedunin score (connectivity score)” value in the experiment on gedunin signature is recorded as 0.562. For the same compound, the “celastrol score (connectivity score)” value with celastrol signature stood at 0.445.

Turning to `CC(=O)O[C@H]1C(=O)[C@@]2(C)[C@H]([C@H](OC(=O)c3ccccc3)[C@]3(O)C[C@H](OC(=O)[C@H](O)[C@@H](NC(=O)c4ccccc4)c4ccccc4)C(C)=C1C3(C)C)[C@]1(OC(C)=O)CO[C@@H]1C[C@@H]2O` [paclitaxel], the “gedunin score (connectivity score)” value with gedunin signature is given as 0. The “celastrol score (connectivity score)” value in the experiment on celastrol signature came out at 0.319.

As for `N=C1C=CC(=C(c2ccc(N)cc2)c2ccc(N)cc2)C=C1` [pararosaniline], the “gedunin score (connectivity score)” value in the experiment on gedunin signature is given as 0.496. In addition, the “celastrol score (connectivity score)” value with celastrol signature is 0.579.

As for `N=C(N)c1ccc(OCCCCCOc2ccc(C(=N)N)cc2)cc1` [pentamidine], in the experiment with gedunin signature, the “gedunin score (connectivity score)” value was 0.456. Besides, the “celastrol score (connectivity score)” value with celastrol signature was determined as 0.

Turning to `O=c1[nH]c2ccccc2c2ccccc12` [phenanthridinone], the “gedunin score (connectivity score)” value in the experiment on gedunin signature is on record as −1. In the experiment on gedunin signature (rank by gedunin score among 164 Connectivity Map compounds), this compound yielded a gedunin rank of 164. Moreover, in the experiment on celastrol signature, the “celastrol score (connectivity score)” value was 0.429. For the same compound, the celastrol rank in the experiment with celastrol signature (rank by celastrol score among 164 Connectivity Map compounds) is reported as 32.

As for `[H]/N=C(/N)N/C(=N/[H])NCCc1ccccc1` [phenformin], the “gedunin score (connectivity score)” value with gedunin signature worked out at 0. The “celastrol score (connectivity score)” value with celastrol signature turned out to be 0.355.

Consider `Cc1ccc(N(CC2=NCCN2)c2cccc(O)c2)cc1` [phentolamine], for which, in the experiment with gedunin signature, the “gedunin score (connectivity score)” value turned out to be 0. The “celastrol score (connectivity score)” value in the experiment on celastrol signature stood at 0.

On to `N=C(N)NC(N)=Nc1ccccc1` [phenyl biguanide], for which the “gedunin score (connectivity score)” value in the experiment with gedunin signature stood at 0. In addition, the “celastrol score (connectivity score)” value in the experiment on celastrol signature amounted to 0.

`Cc1cccc(Nc2cc(Cl)nc(SCC(=O)O)n2)c1C` [pirinixic acid]: the “gedunin score (connectivity score)” value with gedunin signature was 0.055. For the same compound, the “celastrol score (connectivity score)” value in the experiment on celastrol signature came to 0.226.
